From patent publication US10919885B2, “Compounds and uses thereof” (Yumanity Therapeutics, Inc., priority 2018, dated 2021)

The compounds below were run against human SCD1 (Homo sapiens (Human), UniProt O00767) (assay: Yeast growth assay, strain expressing human SCD1 as the sole desaturase (reduced growth as surrogate for SCD inhibition)). Settings: yeast with OLE1 deleted expressing human SCD1 from a plasmid; growth read as OD600 after 40 h at 30° C.; top drug concentration 33.3 μM.
Assay type: cell-based
Procedure: Strains expressing SCD1 or SCD5 as the sole desaturase, the human SCD1 and SCD5 genes were used to evaluate inhibition of SCD1/SCD5 using reduced growth as a surrogate for SCD inhibition. These yeast strains express human SCD1 or SCD5 from a plasmid harbored in a strain in which the yeast OLE1 gene is deleted.
All compound profiling experiments were performed using the same basic protocol. Yeast were cultured using standard techniques in complete synthetic media lacking uracil and containing yeast nitrogen base supplemented with 2% (w/v) glucose (SD-Ura) Starter cultures were inoculated in 3 mL SD-Ura media containing 0.01% tween and 0.2 mM palmitoleic and oleic acid. Cultures were incubated overnight in a 30° C. shaker incubator (225 rpm). Saturated morning cultures were centrifuged, washed in SD-Ura media lacking TWEEN-20 and fatty acids, and then diluted 1:20 in fresh SD-Ura media also lacking TWEEN-20 and fatty acids.
Compound administration was performed in two separate steps. First, 15 μL of SD-Ura was dispensed into clear 384-well assay plates using a MULTIDROP™ Combi reagent dispenser. […] The cultures described above were centrifuged and washed with media lacking TWEEN-20 or oleic and palmitoleic acids.
After yeast delivery, assay plates were incubated under humidified conditions at 30° C. for 40 h. Yeast growth was monitored by reading the OD600 of each well using a microplate reader (Perkin Elmer EnVision™).

human SCD1, sequence (O00767 whole entry): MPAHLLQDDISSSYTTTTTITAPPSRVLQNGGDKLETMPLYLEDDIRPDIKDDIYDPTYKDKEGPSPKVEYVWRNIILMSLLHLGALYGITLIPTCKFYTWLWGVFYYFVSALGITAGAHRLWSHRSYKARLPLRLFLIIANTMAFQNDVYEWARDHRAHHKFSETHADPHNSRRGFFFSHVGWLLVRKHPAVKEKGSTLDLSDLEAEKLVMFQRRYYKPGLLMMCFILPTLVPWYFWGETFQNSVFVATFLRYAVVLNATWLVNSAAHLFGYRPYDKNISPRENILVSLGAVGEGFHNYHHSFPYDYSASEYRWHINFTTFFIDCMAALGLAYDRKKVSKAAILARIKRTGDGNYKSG

Compared with O=C(Nc1cnn(Cc2cnccc2C(F)(F)F)c1)c1cc(-c2cnco2)on1 [Compound 171, 5-(oxazol-5-yl)-N-(1-((4-(trifluoromethyl)pyridin-3-yl)methyl)-1H-pyrazol-4-yl)isoxazole-3-carboxamide], O=C(Nc1cnn(Cc2cnccc2C(F)(F)F)c1)c1cc(-c2ccco2)on1 [Compound 198, 5-(furan-2-yl)-N-(1-{[4-(trifluoromethyl)pyridin-3-yl]methyl}-1H-pyrazol-4-yl)-1,2-oxazole-3-carboxamide] is higher in IC50: 19 µM for the first, greater than 45 µM for the second.

Going from O=C(Nc1cnn(Cc2ccccc2)c1)c1cc(N2CCCC2)on1 [Compound 178, N-(1-benzyl-1H-pyrazol-4-yl)-5-(pyrrolidin-1-yl)isoxazole-3-carboxamide] to O=C(Nc1cnn(Cc2ccccc2)c1)c1cc(N2CCNCC2)on1 [Compound 190], the IC50 rises from 0.01 µM to greater than 45 µM. The first is the more potent here.

First: O=C(Nc1cnn(Cc2ccccc2)c1)c1cc(Cl)on1 [Compound 180]
Second: O=C(Nc1cnn(Cc2ccccc2)c1)c1cc(N2CC[C@@H](O)C2)on1 [Compound 186, (R)—N-(1-benzyl-1H-pyrazol-4-yl)-5-(3-hydroxypyrrolidin-1-yl)isoxazole-3-carboxamide]
The IC50 of the first is higher: greater than 45 µM for the first, 2 µM for the second. The second is the more potent here.

First: O=C(Nc1cnn(Cc2cnccc2C(F)(F)F)c1)c1cc(N2CCCCC2)on1 [Compound 182, 5-(piperidin-1-yl)-N-(1-((4-(trifluoromethyl)pyridin-3-yl)methyl)-1H-pyrazol-4-yl)isoxazole-3-carboxamide]
Second: O=C(Nc1cnn(Cc2cnccc2C(F)(F)F)c1)c1noc2c1CCCC2 [Compound 194, N-(1-{[4-(trifluoromethyl)pyridin-3-yl]methyl}-1H-pyrazol-4-yl)-4,5,6,7-tetrahydro-1,2-benzoxazole-3-carboxamide]
The IC50 of the first is higher: greater than 45 µM for the first, 25 µM for the second.

Compared with CC(C)(C)OC(=O)N1CCN(c2cc(C(=O)Nc3cnn(Cc4ccccc4)c3)no2)CC1 [Compound 185, tert-butyl 4-(3-(1-benzyl-1H-pyrazol-4-ylcarbamoyl)isoxazol-5-yl)piperazine-1-carboxylate], O=C(Nc1cnn(Cc2ccccc2)c1)c1cc(N2CC[C@H](O)C2)on1 [Compound 187] is 1200-fold higher in IC50: 0.012 µM for the first, 15 µM for the second.

CO[C@@H]1CCN(c2cc(C(=O)Nc3cnn(Cc4ccccc4)c3)no2)C1 [Compound 188, (R)—N-(1-benzyl-1H-pyrazol-4-yl)-5-(3-methoxypyrrolidin-1-yl)isoxazole-3-carboxamide] and CO[C@H]1CCN(c2cc(C(=O)Nc3cnn(Cc4ccccc4)c3)no2)C1 [Compound 189, (S)—N-(1-benzyl-1H-pyrazol-4-yl)-5-(3-methoxypyrrolidin-1-yl)isoxazole-3-carboxamide] are within 1.5-fold of each other in IC50: 0.074 µM for the first, 0.065 µM for the second.

Compared with O=C(Nc1cnn(Cc2cccc(F)c2)c1)c1noc2c1CCCC2 [Compound 193, N-{1-[(3-fluorophenyl)methyl]-1H-pyrazol-4-yl}-4,5,6,7-tetrahydro-1,2-benzoxazole-3-carboxamide], Cc1cnccc1-c1cc(C(=O)Nc2cnn(Cc3ccccc3)c2)no1 [Compound 201, N-(1-benzyl-1H-pyrazol-4-yl)-5-(3-methylpyridin-4-yl)isoxazole-3-carboxamide] is higher in IC50: 0.01 µM for the first, greater than 45 µM for the second.

O=C(Nc1cnn(Cc2cnccc2C(F)(F)F)c1)c1cc(-c2ccccn2)on1 [Compound 197, 5-(pyridin-2-yl)-N-(1-{[4-(trifluoromethyl)pyridin-3-yl]methyl}-1H-pyrazol-4-yl)-1,2-oxazole-3-carboxamide] and O=C(Nc1cnn(Cc2cnccc2C(F)(F)F)c1)c1cc(-c2ccc3c(c2)OCO3)on1 [Compound 199, 5-(2H-1,3-benzodioxol-5-yl)-N-(1-{[4-(trifluoromethyl)pyridin-3-yl]methyl}-1H-pyrazol-4-yl)-1,2-oxazole-3-carboxamide] cannot be ordered by IC50: greater than 45 µM for the first, greater than 45 µM for the second.

First: O=C(c1cc(-c2ccccc2)on1)N1CC(Cc2ccccc2)C1 [Compound 211, (3-benzylazetidin-1-yl)-(5-phenylisoxazol-3-yl)methanone]
Second: O=C(c1cc(-c2ccc(Cl)cn2)on1)N1CC(Cc2ccccc2)C1 [Compound 254]
The IC50 of the first is lower: 0.12 µM for the first, greater than 45 µM for the second.

Going from O=C(c1cc(-c2ccc3c(c2)OCO3)on1)N1CC(c2ccccc2)C1 [Compound 217, [5-(1,3-benzodioxol-5-yl)isoxazol-3-yl]-(3-phenylazetidin-1-yl)methanone] to O=C(c1cc(-c2ccc3c(c2)OCO3)on1)N1CC2(CC(c3ccccc3)C2)C1 [Compound 228], the IC50 rises from 1.57 µM to 37.1 µM (24-fold).

Going from O=C(c1cc(-c2ccccc2)on1)N1CC2(C1)CC(O)(c1ccccc1)C2 [Compound 226, (6-hydroxy-6-phenyl-2-azaspiro[3.3]heptan-2-yl)-(5-phenylisoxazol-3-yl)methanone] to O=C(c1cc(-c2ccccc2)on1)N1CCC(c2ccccc2C(F)(F)F)CC1 [Compound 289, (5-phenylisoxazol-3-yl)-[4-[2-(trifluoromethyl)phenyl]-1-piperidyl]methanone], the IC50 rises from 12 µM to greater than 45 µM.

Going from CNC(=O)c1ccc(-c2cc(C(=O)N3CC(c4ccccc4)C3)no2)cc1 [Compound 231, N-methyl-4-(3-(3-phenylazetidine-1-carbonyl)isoxazol-5-yl)benzamide] to O=C(c1cc(-c2ccc(Cl)cn2)on1)N1CC(c2ccccc2)C1 [Compound 241, (5-(5-chloropyridin-2-yl)isoxazol-3-yl)(3-phenylazetidin-1-yl)methanone], the IC50 falls from greater than 45 µM to 3.38 µM. The second is the more potent here.

O=C(c1cc(-c2ccco2)on1)N1CC2(CCC2)C1 [Compound 246] and O=C(c1cc(-c2ccc3c(c2)OCO3)on1)N1CCC(O)(c2ccccc2)CC1 [Compound 300] cannot be ordered by IC50: greater than 45 µM for the first, greater than 45 µM for the second.

Compared with O=C(c1cc(N2CCOCC2)on1)N1CC(c2ccccc2)C1 [Compound 248], COC1CCN(c2cc(C(=O)N3CC(c4ccccc4)C3)no2)CC1 [Compound 249] is higher in IC50: 33 µM for the first, greater than 45 µM for the second.

CC(C)c1cc(C(=O)N2CC(Cc3ccccc3)C2)no1 [Compound 251] and COc1ccc(-c2cc(C(=O)N3CC(Cc4ccccc4)C3)no2)nn1 [Compound 256] cannot be ordered by IC50: greater than 45 µM for the first, greater than 45 µM for the second.

O=C(c1cc(-c2ccc3c(c2)OCO3)on1)N1CCOc2ccccc21 [Compound 262] and O=C(c1cc(-c2ccc3c(c2)OCO3)on1)N1CCN(c2ccccc2F)CC1 [Compound 277] cannot be ordered by IC50: greater than 45 µM for the first, greater than 45 µM for the second.

O=C(c1cc(-c2ccc3c(c2)OCO3)on1)N1CCCc2cccc(F)c21 [Compound 264] and O=C(c1cc(-c2ccc3c(c2)OCO3)on1)N1CCC(c2ccccc2C(F)(F)F)CC1 [Compound 302, [5-(1,3-benzodioxol-5-yl)isoxazol-3-yl]-[4-[2-(trifluoromethyl)phenyl]-1-piperidyl]methanone] cannot be ordered by IC50: greater than 45 µM for the first, greater than 45 µM for the second.

CC(C)(C)OC(=O)N1CCN(C(=O)c2cc(-c3ccc4c(c3)OCO4)on2)CC1 [Compound 267] and CC1CN(c2ccccc2)CCN1C(=O)c1cc(-c2ccc3c(c2)OCO3)on1 (centres unmarked) [Compound 270, (5-(benzo[d][1,3]dioxol-5-yl)isoxazol-3-yl)(2-methyl-4-phenylpiperazin-1-yl)methanone] cannot be ordered by IC50: greater than 45 µM for the first, greater than 45 µM for the second.

Compared with O=C(c1cc(-c2ccccc2)on1)N1CCn2ccnc2C1 [Compound 268], COc1ccc(-c2cc(C(=O)N3CCN(c4ccccc4)CC3)no2)cc1OC [Compound 274] is higher in IC50: 36 µM for the first, greater than 45 µM for the second. The first is the more potent here.
